# Laboratory results from patent US4116972A, “Anti-inflammatory 1-oxo-isoindoline derivatives and processes for their preparation” (Fuji Chemical Industry Company Limited, priority 1975, dated 1978).
# Where two headings read alike, the source gives them in different places.
# Columns and labels:
# [1] = tested on: male rats of the Wistar strain; test: Analgesic effect, Pressure Method; format: in vivo, rat (male
# Protocol: (§1) The rats were tested in groups of six. Only those animals having a normal pain threshold in both hind legs were selected for the tests. The compound to be tested was suspended in 0.3% carboxymethylcellulose aqueous solution and administered orally. […] The analgesic activity was tested by the Pressure Method [Brit. J. […] Int.
# stomach [2] = test: Effect on gastric ulcer, first method (single oral administration); format: in vivo, rat (male, Donryu strain); settings: 18 hours
# Protocol: (§2) Each compound to be tested was suspended in a 0.3% solution of carboxymethylcellulose in physiological saline and administered in an amount of 1 ml per 200 g body weight of the rat. Determination of the occurrence of gastric inflammation and ulceration was calculated by adding the sizes of ulcerated regions (mm^2) of each rat observed within a lattice (width 1 cm, divided into 10 equal parts) of a stereomicroscope. The determination was made on the stomach removed after sacrifice of the animal and then fixed for 10 minutes with 1% formalin.
# In a first method, the compound to be tested was administered orally after 24 hours starvation and then, after a further 18 hours, the animal was sacrificed, under ether anaesthesia.
# stomach [3] = test: Effect on gastric ulcer, second method (repeated oral administration); format: in vivo, rat (male, Donryu strain)
# Protocol: Male rats of the Donryu strain having a body weight of 150-200 g were starved for 24 hours and the effects of administration of Compound 1 and its aluminium salt (Compound 7) on the occurrence of gastric ulcers were determined, as were the effects of other known anti-inflammatory agents.
# as §2
# As a second method, first oral administration was effected after 24 hours starvation and a second oral administration was effected after a further 12 hours starvation. Each animal was then sacrificed, under ether anaesthesia, 6 hours after the second administration. This method was employed to observe the effect after repeated administration of the compounds of the invention.
# Solubility = format: physicochemical
# [4] = tested on: male rats of the Wistar strain; test: Analgesic effect, Acetic Acid Raising Method; format: in vivo, rat (male; design: unit not given here
# [5] = tested on: male rats of the Wistar strain; test: Analgesic effect, Randall-Selitto Method; format: in vivo, rat (male
# Protocol: as §1
# [6] = tested on: carrageenin-induced oedema; test: Carrageenin-oedema test in rats (anti-inflammatory activity); format: in vivo, rat (male, Wistar strain)
# Protocol: Compound 1 was administered through a stomach tube, in suspension in a 0.3% by weight carboxymethylcellulose aqueous solution, in an amount of 6.25 mg/kg or 12.5 mg/kg to male rats of the Wistar strain having a body weight of 120-130 g. After 1 hour, inflammation was induced by injecting subcutaneously […] of a 1% carrageenin suspension into the plantar tissue of the right hind paw of each rat. Paw oedema was measured volumetrically,immediately before and also every hour for 5 hours after the carrageenin injection, and the response, measured as the oedema effect (E) was calculated by the following equation: […]
# where Vo and VT represents the paw volumes O and T after the carrageenin injection, respectively.
# The tests were also carried out on a control group of rats to which no anti-inflammatory agent had been administered. Each test was carried out on a group of six rats.
# The inhibitory effect was measured by the inhibitory ratio (IR), calculated from the following equation:
# IR = […] 100 (%)
# where Ec represents the oedema ratio of the control rats and E represents the oedema ratio of the rats treated with Compound 1.
# The inhibitory ratio was determined on administration of various amounts of Compound 1 and the results obtained 3 hours after carrageenin injection are shown in Table 1.
# Acute toxicity (oral) = format: in vivo; settings: in vivo; for LD50 at 168 h: rat, po
# Protocol: (§3) Compound 1 was administered in the amounts shown in Table 3 to male rats of the Wistar strain having a body weight of 110-130 g. The rats were tested in groups of eight and similar tests were applied to similar groups of female rats. The compound to be tested was suspended in a 0.3% aqueous solution of carboxymethylcellulose and was administered through a stomach tube. The lethal dose 50% (LD50) and credibility limit 95% (CL) were calculated from the lethal effect by the method of Litchield and Wilcoxon [J. Pharmac. Exp. Ther., 96, 99 (1949)]; the lethal effect was expressed as X/n, in which X is the number of animals which were dead one week after administration and n is the total number of animals used in the test.
# [7] = tested on: rats of the Wistar strain; test: Acute toxicity (oral); format: in vivo; settings: one week after administration
# Protocol: as §3
# [8] = tested on: male rats of the Wistar strain; test: Analgesic effect, overall (Pressure, Acetic Acid Raising and Randall-Selitto methods); format: in vivo, rat (male; settings: oral
# Protocol: as §1
# [9] = 50 mg/kg P.O., Compound 7 marked ** (significant difference vs phenylbutazone at p = 0.01)
# [10] = 50 × 2 mg/kg P.O., vs phenylbutazone: Compound 1 * (p = 0.01), Compound 7 ** (p = 0.1), 2 mg/kg
# [11] = 200 × 2 mg/kg P.O., Aspirin marked * (significant difference vs phenylbutazone at p = 0.01)
smiles,measurement,setting,value
Cc1c(N(C)C)c(=O)n(-c2ccccc2)n1C [Aminopyrine],"Pressure method, Ratio (average)",[1]; 150 mg/kg orally,2.02
"CC(C(=O)O)c1ccc(N2CC3=C(CC=CC3)C2=O)cc1 (stereo not drawn) [Compound 7, Aluminium α-[4-(1-oxo-4,7-dihydro-2-isoindolinyl)phenyl]propionate]",Size of ulcerated region of stomach,stomach [2]; [9],2.4 ± 0.49 mm^2
same,Size of ulcerated region of stomach,stomach [3]; [10],10.3 ± 1.00 mm^2
same,solubility in dimethyl sulphoxide,Solubility; dimethyl sulphoxide,slightly soluble
same,solubility in most organic solvents,Solubility; most organic solvents,sparingly soluble
CC(C(=O)O)c1cccc(C(=O)c2ccccc2)c1 (centres unmarked) [Ketoprofen],"Pressure method, Ratio (average)",[1]; 100 mg/kg orally,1.40
same,"Acetic Acid Raising method, a (graded response)",[4]; 100 mg/kg orally,53.8
same,"Acetic Acid Raising method, b (all or none response)",[4]; 100 mg/kg orally,60
same,"Randall-Selitto method, Analgesic index, Inflamed foot",[5]; 10 mg/kg orally,1.20
same,"Randall-Selitto method, Analgesic index, Normal foot",[5]; 10 mg/kg orally,1.03
CCCCC1C(=O)N(c2ccccc2)N(c2ccccc2)C1=O [Phenylbutazone],"Acetic Acid Raising method, a (graded response)",[4]; 200 mg/kg orally,25.8
same,"Acetic Acid Raising method, b (all or none response)",[4]; 200 mg/kg orally,20
same,Size of ulcerated region of stomach,stomach [2]; 200 mg/kg P.O.,6.6 ± 1.31 mm^2
same,Size of ulcerated region of stomach,stomach [3]; [11],17.2 ± 1.93 mm^2
CC(C)Cc1ccc(C(C)C(=O)O)cc1 (centres unmarked) [Ibuprofen],"Acetic Acid Raising method, a (graded response)",[4]; 200 mg/kg orally,21.9
same,"Acetic Acid Raising method, b (all or none response)",[4]; 200 mg/kg orally,20
same,"Randall-Selitto method, Analgesic index, Inflamed foot",[5]; 100 mg/kg orally,1.20
same,"Randall-Selitto method, Analgesic index, Normal foot",[5]; 100 mg/kg orally,1.05
"CC(C(=O)O)c1ccc(N2CC3=C(CC=CC3)C2=O)cc1 (stereo not drawn) [Compound 1, α-[4-(1-oxo-4,7-dihydro-2-isoindolinyl)phenyl]propionic acid]",Inhibitory ratio,"[6]; 5 mg/kg oral, 3 hours after carrageenin injection",33.2%
same,Inhibitory ratio,"[6]; 10 mg/kg oral, 3 hours after carrageenin injection",57.1%
same,Inhibitory ratio,"[6]; 20 mg/kg oral, 3 hours after carrageenin injection",64.7%
same,Inhibitory ratio,"[6]; 40 mg/kg oral, 3 hours after carrageenin injection",69.0%
same,dose dependence of inhibitory effect (in words),"[6]; 5-40 mg/kg, 3 hours after carrageenin injection",increased in rough proportion to the amount of Compound 1 administered
same,inhibitory effect over the first 5 hours (in words),[6]; 6.25 or 12.5 mg/kg oral,strong inhibitory effect appeared over the first 5 hours
same,onset of inhibitory effect (in words),[6]; 6.25 or 12.5 mg/kg oral,clearly appeared at the end of the first hour after carrageenin injection
same,ED50,"[6]; 3 h, oral, rat carrageenin oedema, range printed 4.0-30.9 mg/kg, read-out: ED50 (effective dose 50%)",11.1 mg/kg
same,inhibitory effect on carrageenin-induced oedema (in words),[6]; rat hind paw oedema,particularly strong inhibitory effect
same,"Pressure method, Ratio (average)",[1]; 150 mg/kg orally,1.36
same,"Acetic Acid Raising method, a (graded response)",[4]; 100 mg/kg orally,21.0
same,"Acetic Acid Raising method, b (all or none response)",[4]; 100 mg/kg orally,7
same,"Randall-Selitto method, Analgesic index, Inflamed foot",[5]; 10 mg/kg orally,1.21
same,"Randall-Selitto method, Analgesic index, Normal foot",[5]; 10 mg/kg orally,1.04
same,selectivity ratio,"Acute toxicity (oral); oral LD50 male rat / ED50 carrageenin oedema rat, read-out: therapeutic index (LD50/ED50)",29.6
same,LD50 at 168 h,"Acute toxicity (oral); female rats, 95% CL (250-476), read-out: LD50, Female",345 mg/kg
same,LD50 at 168 h,"Acute toxicity (oral); male rats, 95% CL (238-453), read-out: LD50, Male",328 mg/kg
same,"Lethal effect, Female (dead/total)",[7]; 180 mg/kg oral,1/8
same,"Lethal effect, Male (dead/total)",[7]; 180 mg/kg oral,0/8
same,"Lethal effect, Female (dead/total)",[7]; 234 mg/kg oral,2/8
same,"Lethal effect, Male (dead/total)",[7]; 234 mg/kg oral,2/8
same,"Lethal effect, Female (dead/total)",[7]; 304 mg/kg oral,3/8
same,"Lethal effect, Male (dead/total)",[7]; 304 mg/kg oral,4/8
same,"Lethal effect, Female (dead/total)",[7]; 395 mg/kg oral,5/8
same,"Lethal effect, Male (dead/total)",[7]; 395 mg/kg oral,5/8
same,"Lethal effect, Female (dead/total)",[7]; 514 mg/kg oral,6/8
same,"Lethal effect, Male (dead/total)",[7]; 514 mg/kg oral,6/8
same,"Lethal effect, Female (dead/total)",[7]; 668 mg/kg oral,8/8
same,"Lethal effect, Male (dead/total)",[7]; 668 mg/kg oral,8/8
same,Size of ulcerated region of stomach,stomach [2]; [9],4.1 ± 0.46 mm^2
same,Size of ulcerated region of stomach,stomach [3]; [10],11.3 ± 2.00 mm^2
same,analgesic effect (in words),[8],weak
COc1ccc2c(c1)c(CC(=O)O)c(C)n2C(=O)c1ccc(Cl)cc1 [Indomethacin],Size of ulcerated region of stomach,stomach [2]; 20 mg/kg P.O.,8.0 ± 1.22 mm^2
same,Size of ulcerated region of stomach,stomach [3]; 20 × 2 mg/kg P.O.,15.3 ± 1.20 mm^2
Cc1cccc(Nc2ccccc2C(=O)O)c1C [Mefenamic acid],"Acetic Acid Raising method, a (graded response)",[4]; 150 mg/kg orally,45.4
same,"Acetic Acid Raising method, b (all or none response)",[4]; 150 mg/kg orally,60
CC(=O)Oc1ccccc1C(=O)O [Aspirin],Size of ulcerated region of stomach,stomach [2]; 200 mg/kg P.O.,9.7 ± 1.36 mm^2
same,Size of ulcerated region of stomach,stomach [3]; [11],27.2 ± 3.01 mm^2
